Source: US9102620B2, “Deuterated N-ethyl-N-phenyl-1,2-dihydro-4-hydroxy-5-chloro-1-methyl-2-oxoquinoline-3-carboxamide, salts and uses thereof” (TEVA PHARMACEUTICAL INDUSTRIES, LTD., priority 2010, dated 2015)

Experiment: DELAQ concentrations in rat plasma following oral administration of test item
Assay type: in vivo
Conditions: rats, oral 0.2 mg/kg, in average
Procedure: DELAQ in rat plasma was also determined under the following condition. The plasma was purified by on-line SPE after precipitation with LUDOX AS-40 colloidal silica solution followed by the analysis with HPLC with MS/MS detection. The main objectives of this example were: • Quantification of Compound 1, Compound 2, Compound 3 and Laquinimod in rat plasma using LC/MS/MS bioanalytical method. • Characterization of the pharmacokinetic profile of Compound 1, Compound 2, Compound 3 and Laquinimod following oral (PO) administration at a dose of 0.2 mg/kg. • The measurement DELAQ concentrations in the collected plasma samples. Blood was withdrawn from the rats at five different time points for the preparation of plasma. The concentrations of Compound 1, Compound 2, Compound 3, laquinimod, and DELAQ were determined in these plasma samples, using applicable LC/MS/MS methods. The concentrations of test items (Compound 1, Compound 2, Compound 3 and Laquinimod) and the concentration of DELAQ were determined in the plasma samples by using reliable LC/MS/MS assay.

For `[2H]C([2H])([2H])C([2H])([2H])N(C(=O)c1c(O)c2c(Cl)cccc2n(C)c1=O)c1ccccc1` [Compound 2, N-D5-ethyl-N-phenyl-1,2-dihydro-4-hydroxy-5-chloro-1-methyl-2-oxoquinoline-3-carboxamide], the “reduction in DELAQ concentrations compared to laquinimod treated animals” value was “about ten-fold”.
